Assay results taken from patent publication US5162339A, “Quinuclidine therapeutic agents” (Pfizer Inc., priority 1990, dated 1992).

Legend:
[1] = system: carrageenin-induced rat foot edema; test: carrageenin-induced rat foot edema test; assay type: in vivo; conditions: for % Inhibition at 32 mg./kg. (inhibition of edema formation): rats, 32 mg./kg. orally (by gavage), compared to vehicle control
From the text: (§1) Such conditions include gastrointestinal disorders such as ulcer and colitis and other like diseases of the gastrointestinal tract, central nervous system disorders such as anxiety and psychosis, inflammatory diseases such as rheumatoid arthritis and inflammatory bowel diseases, respiratory diseases such as asthma, as well as pain in any of the aforesaid conditions, including migraine. […] A. Winter et al., Proceedings of the Society of Experimental Biology and Medicine, Vol. 111, p.
In this test, anti-inflammatory activity is determined as the percent inhibition of edema formation in the hind par of male albino rats (weighing 150-190 g.) in response to a sub-plantar injection of carrageenin. The carrageenin is injected as a 1% aqueous solution. Edema formation is then assessed by measuring the volume of the injected paw initially as well as three hours after the carrageenin injection. The increase in volume three hours after carrageenin injection constitutes the individual response. Compounds are considered active if the difference in response between the drug-treated animals (six rats/group) and a control group receiving the vehicle alone is significant on comparison with the results afforded by a standard compound like phenylbutazone at 33 mg./kg., via the oral route of administration.
The following cis-[(cyclic)methylamino]-2-benzhydrylquinuclidine final products of Examples 2, 3 and 4, respectively, were tested for anti-inflammatory activity in rats, using the standard rat foot edema test, according to the general procedure described by C. A. Winter et al., as first reported in the Proceedings of the Society for Experimental Biology and Medicine, Vol. 111, p. 544 (1962).

[2] = system: substance P-induced locomotion; test: suppression of substance P-induced hypermotility (locomotion) in rats; assay type: in vivo, rat; conditions: 32 mg./kg. dose level, intraperitoneal route
From the text: as §1
The anti-psychotic activity of the compounds of the present invention as neuroleptic agents for the control of various psychotic disorders is determined primarily by a study of their ability to suppress substance P-induced hypermotility in rats. This study is carried out by first dosing the rats with a control compound or with an appropriate test compound of the present invention, then injecting the rats with substance P by intracerebral administration via canula and thereafter measuring their individual locomotor response to said stimuli.

Compound | % Inhibition at 32 mg./kg. (inhibition of edema formation) [1] [%] | inhibition of substance P-induced locomotion [2] [%] | inhibition in swelling ([1]; rat, 100 mg./kg. dose level, oral route) [%]
COc1ccccc1CN[C@H]1C2CCN(CC2)[C@H]1C(c1ccccc1)c1ccccc1 (relative stereo) [Example 4, cis-3-[(2-methoxyphenyl)methylamino]-2-benzhydrylquinuclidine] | 38 |  | 
Clc1ccccc1CN[C@H]1C2CCN(CC2)[C@H]1C(c1ccccc1)c1ccccc1 (relative stereo) [Example 2, cis-3-[(2-chlorophenyl)methylamino]-2-benzhydrylquinuclidine] | 29 | 50 | 50
FC(F)(F)c1ccccc1CN[C@H]1C2CCN(CC2)[C@H]1C(c1ccccc1)c1ccccc1 (relative stereo) [Example 3, cis-3-[(2-trifluorophenyl)methylamino]-2-benzhydrylquinuclidine] | 50 |  | 
